Test results reported in patent US12606561B2, “Substituted pyrazolo[1,5-a][1,3,5]triazines as CDK inhibitors” (QURIENT CO., LTD., priority 2018, dated 2026).

Key:
CDK5/p25 = target: T1, CDK5/p25 (Homo sapiens, UniProt Q00535); assay: Enzymatic assay for CDK5 (LANCE Ultra kinase assay, FRET based); format: biochemical; conditions: ATP at Km
T1 construct: purchased Invitrogen PR8543B
How it was run: (§1)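 TR-FRET kinase assay at ATP Km with ULight-MBP peptide (68 nM) and Eu-anti-phospho-MBP antibody; CDK2/Cyclin A at […], CDK5/p25 at […]. 8-dose 4-fold compound dilutions; 60 min kinase reaction at 23° C., EDTA stop, 60 min detection, read at 615/665 nm.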

OVCAR-3 = OVCAR-3 viability assay (CellTiter-Glo, 72 hours); format: cell-based; conditions: Homo sapiens; OVCAR-3 cells
How it was run: (§2)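 RPMI-1640/10% FBS; plate cells (MV4-11 1×10^4, OVCAR-3 5×10^3, A2780 1×10^3 per well); 24 h later add compound 0.0015–10 uM; 72 h, 37° C; CellTiter-Glo luminescence, duplicate wells.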

A2780 = A2780 viability assay (CellTiter-Glo, 72 hours); format: cell-based; conditions: Homo sapiens; A2780 cells
How it was run: as §2

CDK1/Cyclin B = target: T2, CDK1/Cyclin B (Homo sapiens, UniProt P06493); assay: Enzymatic assay for CDK1 (LANCE Ultra kinase assay, FRET based); format: biochemical; conditions: ATP at Km; read-out: CDK1 enzymatic activity IC50
T2 construct: purchased Invitrogen PR4768C
T2 sequence (P06493 whole entry): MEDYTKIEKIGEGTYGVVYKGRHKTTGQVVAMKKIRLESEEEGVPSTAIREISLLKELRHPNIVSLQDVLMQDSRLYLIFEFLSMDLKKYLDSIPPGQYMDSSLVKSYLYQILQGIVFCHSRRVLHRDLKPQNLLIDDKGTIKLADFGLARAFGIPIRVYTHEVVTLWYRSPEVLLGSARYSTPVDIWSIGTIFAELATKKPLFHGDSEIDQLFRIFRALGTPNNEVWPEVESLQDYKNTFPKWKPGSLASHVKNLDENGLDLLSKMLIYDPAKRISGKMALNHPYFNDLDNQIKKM
T2 sequence (P14635 whole entry partner): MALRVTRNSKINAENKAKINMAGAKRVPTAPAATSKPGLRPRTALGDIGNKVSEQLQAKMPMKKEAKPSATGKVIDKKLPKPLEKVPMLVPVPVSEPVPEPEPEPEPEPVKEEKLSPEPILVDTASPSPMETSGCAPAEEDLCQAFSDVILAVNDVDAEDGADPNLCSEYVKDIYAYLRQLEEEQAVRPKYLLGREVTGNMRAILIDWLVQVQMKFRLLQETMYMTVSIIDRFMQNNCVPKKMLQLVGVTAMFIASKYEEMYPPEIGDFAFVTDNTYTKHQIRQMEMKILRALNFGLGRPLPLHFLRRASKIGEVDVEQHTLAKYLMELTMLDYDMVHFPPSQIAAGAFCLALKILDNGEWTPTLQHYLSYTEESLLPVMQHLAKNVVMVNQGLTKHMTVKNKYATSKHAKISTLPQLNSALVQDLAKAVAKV
How it was run: (§3)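 Purified CDK–cyclin enzyme, ATP at Km; ULight peptide substrate; TR-FRET via Eu anti-phospho-Ab; inhibition scored.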

CDK7/Cyclin H/MNAT1 = target: T3, CDK7/Cyclin H/MNAT1 (Homo sapiens, UniProt P50613); assay: Enzymatic assay for CDK7 (LANCE Ultra kinase assay, FRET based); format: biochemical; conditions: for IC50: ATP at Km
T3 construct: purchased Invitrogen PR6749B
T3 sequence (P50613 whole entry): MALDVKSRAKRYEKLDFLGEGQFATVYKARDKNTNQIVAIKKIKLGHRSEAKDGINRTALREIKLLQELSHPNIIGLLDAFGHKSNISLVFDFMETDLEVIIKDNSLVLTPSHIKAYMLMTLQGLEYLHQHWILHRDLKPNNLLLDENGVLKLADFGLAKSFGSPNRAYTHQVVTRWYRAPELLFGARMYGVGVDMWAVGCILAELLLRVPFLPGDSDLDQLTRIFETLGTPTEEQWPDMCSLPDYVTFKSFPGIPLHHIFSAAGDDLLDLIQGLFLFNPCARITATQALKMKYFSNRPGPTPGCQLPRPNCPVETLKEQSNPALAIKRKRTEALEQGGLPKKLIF
T3 sequence (P51946 whole entry partner): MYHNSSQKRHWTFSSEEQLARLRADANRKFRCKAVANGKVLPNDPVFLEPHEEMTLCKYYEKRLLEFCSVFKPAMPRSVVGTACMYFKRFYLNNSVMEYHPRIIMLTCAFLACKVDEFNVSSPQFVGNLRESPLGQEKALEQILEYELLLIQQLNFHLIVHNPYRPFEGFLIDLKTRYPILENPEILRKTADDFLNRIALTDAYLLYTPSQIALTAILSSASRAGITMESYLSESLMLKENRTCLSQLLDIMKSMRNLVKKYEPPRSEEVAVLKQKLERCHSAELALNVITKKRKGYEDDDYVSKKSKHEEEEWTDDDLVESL
T3 sequence (P51948 whole entry partner): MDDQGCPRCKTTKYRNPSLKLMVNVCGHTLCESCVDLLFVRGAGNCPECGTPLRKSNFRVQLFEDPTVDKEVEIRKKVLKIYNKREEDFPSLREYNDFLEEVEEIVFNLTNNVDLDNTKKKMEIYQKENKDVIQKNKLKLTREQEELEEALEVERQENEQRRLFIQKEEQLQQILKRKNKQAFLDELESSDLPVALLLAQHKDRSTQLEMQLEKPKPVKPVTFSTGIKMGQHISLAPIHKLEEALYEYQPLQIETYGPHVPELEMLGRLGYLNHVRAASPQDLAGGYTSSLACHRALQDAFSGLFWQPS
How it was run: as §3

CDK2/Cyclin A = target: T4, CDK2/Cyclin A (Homo sapiens, UniProt P24941); assay: Enzymatic assay for CDK2 (LANCE Ultra kinase assay, FRET based); format: biochemical; conditions: ATP at Km
T4 construct: purchased Invitrogen PV6290
How it was run: as §1

T1 sequence (Q00535 whole entry): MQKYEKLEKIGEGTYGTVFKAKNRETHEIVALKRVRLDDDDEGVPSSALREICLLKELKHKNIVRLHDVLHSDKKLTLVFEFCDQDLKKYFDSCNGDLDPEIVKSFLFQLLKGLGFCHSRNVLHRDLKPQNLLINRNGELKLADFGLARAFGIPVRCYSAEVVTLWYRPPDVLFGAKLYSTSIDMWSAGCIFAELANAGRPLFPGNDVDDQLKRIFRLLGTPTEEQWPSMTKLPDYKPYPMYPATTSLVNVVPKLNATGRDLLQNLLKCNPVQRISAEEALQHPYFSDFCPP
T1 sequence (Q15078 99-307 partner limits assumed): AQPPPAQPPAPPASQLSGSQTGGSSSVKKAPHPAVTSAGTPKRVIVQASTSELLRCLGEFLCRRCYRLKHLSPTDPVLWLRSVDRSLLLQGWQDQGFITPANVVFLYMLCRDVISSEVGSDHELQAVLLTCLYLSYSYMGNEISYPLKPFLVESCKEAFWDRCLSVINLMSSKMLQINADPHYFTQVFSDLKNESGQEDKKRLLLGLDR

SMILES | IC50 (CDK5/p25) [nM] | IC50 (OVCAR-3) [nM] | IC50 (A2780) [nM] | IC50 (CDK1/Cyclin B) [nM] | IC50 (CDK7/Cyclin H/MNAT1) [nM] | CDK1/CDK7: Selectivity of CDK7 inhibition over CDK1 inhibition (CDK7/Cyclin H/MNAT1) | CDK2/CDK7: Selectivity of CDK7 inhibition over CDK2 inhibition (CDK7/Cyclin H/MNAT1) | CDK5/CDK7: Selectivity of CDK7 inhibition over CDK5 inhibition (CDK7/Cyclin H/MNAT1) | IC50 (CDK2/Cyclin A) [nM]
CC(C)c1cnn2c(NCc3ccccc3-c3nccc4cc(NC(=O)/C=C/CN(C)C)ccc34)nc(NC3CCC(C)(C)NC3)nc12 (stereo not drawn) [Compound 179] | > 1000 | < 1000 | < 1000 | > 1000 | < 100 | A (A indicates [fold] > 500) | A (A indicates [fold] > 500) | A (A indicates [fold] > 500) | > 1000
CC(C)c1cnn2c(NCc3ccccc3-c3nccc4cc(NC(=O)/C=C/CN(C)C)ccc34)nc(NCC3CCN(C)CC3)nc12 [Compound 133] | > 1000 | < 1000 | < 1000 | > 1000 | < 100 | A (A indicates [fold] > 500) | A (A indicates [fold] > 500) | A (A indicates [fold] > 500) | > 1000
CC(C)c1cnn2c(NCc3ccccc3-c3nccc4cc(NC(=O)/C=C/CN(C)C)ccc34)nc(N3CCCC4(CC3)OCCO4)nc12 [Compound 115] | > 1000 | 1000 to 10000 | < 1000 | > 1000 | 100 to 1000 | B (B indicates 50 < [fold] ≤ 500) | B (B indicates 50 < [fold] ≤ 500) | B (B indicates 50 < [fold] ≤ 500) | > 1000
CC(C)c1cnn2c(NCc3ccccc3-c3nccc4cc(NC(=O)/C=C/CN(C)C)ccc34)nc(OC3CC4CCC(C3)N4C)nc12 (stereo not drawn) [Compound 122] | > 1000 | < 1000 | < 1000 | > 1000 | < 100 | A (A indicates [fold] > 500) | A (A indicates [fold] > 500) | A (A indicates [fold] > 500) | > 1000
C=C(F)C(=O)Nc1ccc2c(-c3ccccc3CNc3nc(NC[C@H]4CCN(C(C)C)C[C@@H]4O)nc4c(C(C)C)cnn34)nccc2c1 [Compound 168] | > 1000 | < 1000 | < 1000 | > 1000 | < 100 | B (B indicates 50 < [fold] ≤ 500) | B (B indicates 50 < [fold] ≤ 500) | B (B indicates 50 < [fold] ≤ 500) | > 1000
CO[C@H]1CC[C@H](Nc2nc(NCc3c(C)cccc3-c3ccc4cccc(NC(=O)/C=C/CN(C)C)c4n3)n3ncc(C(C)C)c3n2)CC1 [Compound 127] | > 1000 | < 1000 | < 1000 | > 1000 | 100 to 1000 | B (B indicates 50 < [fold] ≤ 500) | B (B indicates 50 < [fold] ≤ 500) | B (B indicates 50 < [fold] ≤ 500) | > 1000
CC(C)c1cnn2c(NCc3ccccc3-c3nccc4cc(NC(=O)/C=C/CN(C)C)ccc34)nc(N3CCC4(CCN(C)CC4)CC3)nc12 [Compound 128] | > 1000 | < 1000 | < 1000 | > 1000 | < 100 | A (A indicates [fold] > 500) | A (A indicates [fold] > 500) | A (A indicates [fold] > 500) | > 1000
C=C(F)C(=O)Nc1ccc2c(-c3ccccc3CNc3nc(NCC4CNCCO4)nc4c(C(C)C)cnn34)nccc2c1 (racemic) [Compound 80] | > 1000 | < 1000 | < 1000 | > 1000 | < 100 | A (A indicates [fold] > 500) | A (A indicates [fold] > 500) | A (A indicates [fold] > 500) | > 1000
C=C(F)C(=O)Nc1ccc2c(-c3ccccc3CNc3nc(N4CCC(OCC)CC4)nc4c(C(C)C)cnn34)nccc2c1 [Compound 85] | > 1000 | < 1000 | < 1000 | > 1000 | 100 to 1000 | B (B indicates 50 < [fold] ≤ 500) | B (B indicates 50 < [fold] ≤ 500) | B (B indicates 50 < [fold] ≤ 500) | > 1000
C=CC(=O)Nc1ccc2c(-c3ccccc3CNc3cc(N[C@H]4CC[C@H](OC)CC4)nc4c(C(C)C)cnn34)nccc2c1 [Compound 116] | > 1000 | < 1000 | < 1000 | > 1000 | < 100 | A (A indicates [fold] > 500) | A (A indicates [fold] > 500) | A (A indicates [fold] > 500) | > 1000
CC(C)c1cnn2c(NCc3ccccc3-c3nccc4cc(NC(=O)/C=C/CN(C)C)ccc34)nc(N3CCC(C#N)CC3)nc12 [Compound 105] | > 1000 | < 1000 | < 1000 | > 1000 | 100 to 1000 | B (B indicates 50 < [fold] ≤ 500) | B (B indicates 50 < [fold] ≤ 500) | B (B indicates 50 < [fold] ≤ 500) | > 1000
CC(C)c1cnn2c(NCc3ccccc3-c3nccc4cc(NC(=O)/C=C/CN(C)C)ccc34)cc(N3CCC4(CC3)OCCO4)nc12 [Compound 124] | > 1000 | < 1000 | < 1000 | > 1000 | < 100 | B (B indicates 50 < [fold] ≤ 500) | B (B indicates 50 < [fold] ≤ 500) | B (B indicates 50 < [fold] ≤ 500) | > 1000
C=C(F)C(=O)Nc1ccc2c(-c3ccccc3CNc3nc(NC4CCC(OC)CC4)nc4c(C(C)C)cnn34)nccc2c1 (stereo not drawn) [Compound 84] | > 1000 | < 1000 | < 1000 | > 1000 | 100 to 1000 | B (B indicates 50 < [fold] ≤ 500) | B (B indicates 50 < [fold] ≤ 500) | B (B indicates 50 < [fold] ≤ 500) | > 1000
C=C(F)C(=O)Nc1ccc2c(-c3ccccc3CNc3nc(NC[C@@H]4CCNC[C@H]4O)nc4c(C(C)C)cnn34)nccc2c1 [Compound 157] | > 1000 | 1000 to 10000 | < 1000 | > 1000 | < 100 | B (B indicates 50 < [fold] ≤ 500) | B (B indicates 50 < [fold] ≤ 500) | B (B indicates 50 < [fold] ≤ 500) | > 1000
C=C(F)C(=O)Nc1ccc2c(-c3ccccc3CNc3nc(N[C@H]4CCC(C)(C)NC4)nc4c(C(C)C)cnn34)nccc2c1 [Compound 171] | > 1000 | < 1000 | < 1000 | > 1000 | < 100 | A (A indicates [fold] > 500) | A (A indicates [fold] > 500) | A (A indicates [fold] > 500) | > 1000
C=C(F)C(=O)Nc1ccc2c(-c3ccccc3CNc3nc(NC[C@H]4CCN(C)C[C@@H]4O)nc4c(C(C)C)cnn34)nccc2c1 [Compound 164] | > 1000 | < 1000 | < 1000 | > 1000 | < 100 | A (A indicates [fold] > 500) | A (A indicates [fold] > 500) | A (A indicates [fold] > 500) | > 1000
Cc1cc(NCc2ccccc2-c2nccc3cc(NC(=O)/C=C/CN(C)C)ccc23)n2ncc(C(C)C)c2n1 [Compound 153] | > 1000 | < 1000 | < 1000 | > 1000 | < 100 | A (A indicates [fold] > 500) | A (A indicates [fold] > 500) | A (A indicates [fold] > 500) | > 1000
